Test results taken from ChEMBL document CHEMBL1154613, “Antagonists of the calcium receptor. 2. Amino alcohol-based parathyroid hormone secretagogues” (J Med Chem, 2009).

Key:
[1] = molecular target: Sodium-dependent noradrenaline transporter (Homo sapiens, UniProt P23975); assay: Inhibition of NET
[2] = molecular target: T1, Extracellular calcium-sensing receptor (Homo sapiens, UniProt P41180); assay: Displacement of [3H](2-(2-hydroxyphenyl)-6-methyl-5-(2-methylpropyl)-3-(2-phenylethyl)-4(3H)-pyrimidinone) from human calcium receptor expressed in human HEK293 4.0-7 cells by liquid scintillation counting; format: cell-based
T1 sequence (P41180 whole entry): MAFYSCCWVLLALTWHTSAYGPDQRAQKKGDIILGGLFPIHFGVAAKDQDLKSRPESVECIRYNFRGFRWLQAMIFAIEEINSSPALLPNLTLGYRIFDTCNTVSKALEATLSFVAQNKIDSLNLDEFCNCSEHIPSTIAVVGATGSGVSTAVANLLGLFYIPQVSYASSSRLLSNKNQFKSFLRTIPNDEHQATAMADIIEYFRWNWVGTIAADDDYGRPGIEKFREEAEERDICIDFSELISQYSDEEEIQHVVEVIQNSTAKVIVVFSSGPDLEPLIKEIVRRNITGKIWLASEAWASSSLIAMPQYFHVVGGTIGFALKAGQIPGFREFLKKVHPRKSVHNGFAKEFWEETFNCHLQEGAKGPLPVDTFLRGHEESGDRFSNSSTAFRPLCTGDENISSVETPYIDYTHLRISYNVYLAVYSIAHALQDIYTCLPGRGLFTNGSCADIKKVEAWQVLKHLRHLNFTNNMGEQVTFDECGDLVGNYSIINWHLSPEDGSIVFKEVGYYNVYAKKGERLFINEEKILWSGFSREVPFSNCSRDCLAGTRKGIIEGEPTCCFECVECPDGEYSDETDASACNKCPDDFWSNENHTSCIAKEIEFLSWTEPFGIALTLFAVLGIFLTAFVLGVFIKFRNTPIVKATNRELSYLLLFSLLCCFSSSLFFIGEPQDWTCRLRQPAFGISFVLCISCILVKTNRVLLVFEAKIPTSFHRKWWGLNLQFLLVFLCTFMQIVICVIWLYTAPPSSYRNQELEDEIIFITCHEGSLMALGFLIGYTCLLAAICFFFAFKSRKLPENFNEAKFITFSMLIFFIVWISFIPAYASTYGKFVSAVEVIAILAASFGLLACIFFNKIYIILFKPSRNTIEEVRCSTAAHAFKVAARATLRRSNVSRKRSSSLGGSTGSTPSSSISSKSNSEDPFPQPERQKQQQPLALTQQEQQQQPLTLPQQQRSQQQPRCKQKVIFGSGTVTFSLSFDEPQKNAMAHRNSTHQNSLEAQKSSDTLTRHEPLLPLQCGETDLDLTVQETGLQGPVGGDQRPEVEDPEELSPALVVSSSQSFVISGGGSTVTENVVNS

[3] = molecular target: Sodium-dependent serotonin transporter (Homo sapiens, UniProt P31645); assay: Inhibition of SERT
Sodium-dependent serotonin transporter, sequence (P31645 whole entry): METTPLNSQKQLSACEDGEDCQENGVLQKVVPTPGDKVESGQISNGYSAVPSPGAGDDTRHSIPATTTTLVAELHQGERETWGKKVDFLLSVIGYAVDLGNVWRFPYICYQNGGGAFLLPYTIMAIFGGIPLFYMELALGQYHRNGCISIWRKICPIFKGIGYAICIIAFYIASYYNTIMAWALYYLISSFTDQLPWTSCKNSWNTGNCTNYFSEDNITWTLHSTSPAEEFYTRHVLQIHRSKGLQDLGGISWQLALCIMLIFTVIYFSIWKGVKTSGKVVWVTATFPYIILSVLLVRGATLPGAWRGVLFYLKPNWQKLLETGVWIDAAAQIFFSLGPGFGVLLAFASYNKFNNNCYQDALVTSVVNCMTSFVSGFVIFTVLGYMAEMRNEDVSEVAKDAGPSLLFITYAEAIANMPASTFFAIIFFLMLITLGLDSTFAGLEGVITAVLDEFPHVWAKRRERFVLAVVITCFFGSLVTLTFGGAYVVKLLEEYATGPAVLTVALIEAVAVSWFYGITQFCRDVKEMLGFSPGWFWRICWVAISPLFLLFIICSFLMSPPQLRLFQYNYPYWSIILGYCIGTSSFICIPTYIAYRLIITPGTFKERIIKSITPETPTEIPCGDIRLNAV

[4] = Mean residence time in iv and po dosed dog; format: ADME, organism-based, Canis lupus familiaris; details: in vivo
[5] = Half life in iv and po dosed dog; format: ADME, organism-based, Canis lupus familiaris; details: in vivo
[6] = molecular target: Beta-2 adrenergic receptor (Homo sapiens, UniProt P07550); assay: Inhibition of beta2 adrenergic receptor
Beta-2 adrenergic receptor, sequence (P07550 whole entry): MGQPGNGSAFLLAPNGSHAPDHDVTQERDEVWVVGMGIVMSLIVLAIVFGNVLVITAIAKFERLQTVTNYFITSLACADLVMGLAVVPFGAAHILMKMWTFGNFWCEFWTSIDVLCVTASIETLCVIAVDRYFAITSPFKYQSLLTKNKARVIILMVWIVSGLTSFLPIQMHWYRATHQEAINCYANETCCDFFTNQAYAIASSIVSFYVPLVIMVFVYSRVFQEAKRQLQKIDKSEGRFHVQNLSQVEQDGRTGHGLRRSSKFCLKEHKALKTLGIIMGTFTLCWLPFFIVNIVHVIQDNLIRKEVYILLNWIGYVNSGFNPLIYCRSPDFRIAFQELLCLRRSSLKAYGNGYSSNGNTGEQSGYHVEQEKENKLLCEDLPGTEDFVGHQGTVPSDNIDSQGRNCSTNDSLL

[7] = Mean residence time in iv and po dosed rat; format: ADME, organism-based; details: in vivo
[8] = molecular target: Sodium-dependent dopamine transporter (Homo sapiens, UniProt Q01959); assay: Inhibition of DAT
Sodium-dependent dopamine transporter, sequence (Q01959 whole entry): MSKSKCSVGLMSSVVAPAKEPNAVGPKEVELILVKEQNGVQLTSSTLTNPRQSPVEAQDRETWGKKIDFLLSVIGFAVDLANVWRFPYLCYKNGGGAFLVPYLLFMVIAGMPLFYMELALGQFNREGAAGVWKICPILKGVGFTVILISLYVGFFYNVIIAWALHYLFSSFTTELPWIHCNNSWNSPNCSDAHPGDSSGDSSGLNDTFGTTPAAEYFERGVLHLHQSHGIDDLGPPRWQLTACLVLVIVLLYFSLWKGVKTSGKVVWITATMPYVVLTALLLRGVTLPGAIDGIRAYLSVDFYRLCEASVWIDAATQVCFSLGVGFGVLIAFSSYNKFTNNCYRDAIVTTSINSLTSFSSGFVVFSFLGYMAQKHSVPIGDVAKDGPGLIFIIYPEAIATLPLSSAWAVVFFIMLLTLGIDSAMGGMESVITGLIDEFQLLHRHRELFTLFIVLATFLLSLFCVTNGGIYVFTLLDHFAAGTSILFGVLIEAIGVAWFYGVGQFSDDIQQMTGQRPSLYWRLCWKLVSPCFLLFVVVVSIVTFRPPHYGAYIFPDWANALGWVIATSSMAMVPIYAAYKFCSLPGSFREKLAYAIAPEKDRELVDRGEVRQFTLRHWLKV

Cytochrome P450 2D6 = Cytochrome P450 2D6 (Homo sapiens, UniProt P10635); assay: Inhibition of CYP2D6; format: ADME
Cytochrome P450 2D6, sequence (P10635 whole entry): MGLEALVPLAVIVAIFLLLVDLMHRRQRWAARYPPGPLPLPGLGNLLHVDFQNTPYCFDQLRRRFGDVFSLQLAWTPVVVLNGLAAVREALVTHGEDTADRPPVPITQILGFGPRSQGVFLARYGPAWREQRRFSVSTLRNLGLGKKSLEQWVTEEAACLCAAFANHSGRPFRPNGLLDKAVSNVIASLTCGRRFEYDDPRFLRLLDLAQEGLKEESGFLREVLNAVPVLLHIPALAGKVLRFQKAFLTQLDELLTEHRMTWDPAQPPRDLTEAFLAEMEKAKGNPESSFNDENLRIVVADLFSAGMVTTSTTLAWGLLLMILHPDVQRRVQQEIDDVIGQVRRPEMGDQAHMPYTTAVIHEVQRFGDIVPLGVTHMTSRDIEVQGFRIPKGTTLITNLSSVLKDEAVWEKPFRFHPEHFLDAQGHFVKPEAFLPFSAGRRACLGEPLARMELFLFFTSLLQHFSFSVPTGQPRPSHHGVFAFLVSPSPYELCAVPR

[9] = Half life in iv and po dosed rat; format: ADME, organism-based; details: in vivo
[10] = molecular target: T1, Extracellular calcium-sensing receptor; assay: Antagonist activity at human calcium receptor expressed in HEK293 4.0-7 cells assessed as inhibition of intracellular calcium release by FLIPR assay; format: functional, cell-based
Canis familiaris [11] = assay: Oral bioavailability in dog assessed as (R)-3-(3-cyano-4-(2-hydroxy-3-(2-methyl-1-(naphthalen-2-yl)propan-2-ylamino)propoxy)phenyl)propanoic acid levels; format: ADME, organism-based, Canis lupus familiaris; details: in vivo
Canis familiaris [12] = assay: Tmax in dog assessed as (R)-3-(3-cyano-4-(2-hydroxy-3-(2-methyl-1-(naphthalen-2-yl)propan-2-ylamino)propoxy)phenyl)propanoic acid levels at 23.4 mg/kg, po; format: ADME, organism-based, Canis lupus familiaris; design: dose 23.4 mg/kg, route oral; details: in vivo
Canis familiaris [13] = assay: Cmax in dog assessed as (R)-3-(3-cyano-4-(2-hydroxy-3-(2-methyl-1-(naphthalen-2-yl)propan-2-ylamino)propoxy)phenyl)propanoic acid levels at 23.4 mg/kg, po; format: ADME, organism-based, Canis lupus familiaris; design: dose 23.4 mg/kg, route oral; details: in vivo
Rattus norvegicus [14] = assay: Oral bioavailability in rat assessed as (R)-3-(3-cyano-4-(2-hydroxy-3-(2-methyl-1-(naphthalen-2-yl)propan-2-ylamino)propoxy)phenyl)propanoic acid levels; format: ADME, organism-based; details: in vivo
[15] = molecular target: Voltage-gated inwardly rectifying potassium channel KCNH2 (Homo sapiens, UniProt Q12809)
Voltage-gated inwardly rectifying potassium channel KCNH2, sequence (Q12809 whole entry): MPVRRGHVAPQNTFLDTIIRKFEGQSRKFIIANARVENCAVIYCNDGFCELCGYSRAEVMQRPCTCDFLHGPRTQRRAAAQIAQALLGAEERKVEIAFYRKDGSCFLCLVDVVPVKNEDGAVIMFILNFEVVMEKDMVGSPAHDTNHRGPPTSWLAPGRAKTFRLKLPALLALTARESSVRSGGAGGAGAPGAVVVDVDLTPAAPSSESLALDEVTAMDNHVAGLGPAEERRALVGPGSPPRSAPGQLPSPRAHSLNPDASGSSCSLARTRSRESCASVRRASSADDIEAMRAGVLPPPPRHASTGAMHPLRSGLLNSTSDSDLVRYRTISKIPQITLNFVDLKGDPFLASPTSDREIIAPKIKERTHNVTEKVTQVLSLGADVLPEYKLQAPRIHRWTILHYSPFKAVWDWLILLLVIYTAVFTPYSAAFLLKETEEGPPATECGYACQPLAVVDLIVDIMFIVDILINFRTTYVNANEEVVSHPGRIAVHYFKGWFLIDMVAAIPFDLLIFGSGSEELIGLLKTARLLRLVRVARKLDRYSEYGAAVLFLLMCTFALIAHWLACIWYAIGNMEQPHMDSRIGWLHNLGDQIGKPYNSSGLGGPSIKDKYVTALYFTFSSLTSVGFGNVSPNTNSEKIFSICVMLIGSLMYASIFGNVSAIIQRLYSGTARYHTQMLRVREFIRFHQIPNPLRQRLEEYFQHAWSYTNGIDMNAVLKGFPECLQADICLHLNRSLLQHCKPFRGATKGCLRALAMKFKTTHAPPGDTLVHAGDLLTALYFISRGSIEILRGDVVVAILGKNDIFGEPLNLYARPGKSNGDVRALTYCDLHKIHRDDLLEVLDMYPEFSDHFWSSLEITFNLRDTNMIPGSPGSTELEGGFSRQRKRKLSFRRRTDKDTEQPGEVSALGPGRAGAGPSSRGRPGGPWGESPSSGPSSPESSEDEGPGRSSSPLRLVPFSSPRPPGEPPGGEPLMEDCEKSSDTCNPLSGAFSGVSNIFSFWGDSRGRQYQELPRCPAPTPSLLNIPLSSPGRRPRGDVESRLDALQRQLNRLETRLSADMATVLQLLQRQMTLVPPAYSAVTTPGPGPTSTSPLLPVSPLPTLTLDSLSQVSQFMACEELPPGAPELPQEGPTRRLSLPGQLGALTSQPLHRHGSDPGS

[16] = Volume of distribution at steady state in iv and po dosed rat; format: ADME, organism-based; details: in vivo, read-out: Vdss
[17] = Clearance in iv and po dosed rat; format: ADME, organism-based; details: in vivo
[18] = Oral bioavailability in rat; format: ADME, organism-based; details: in vivo
[19] = Volume of distribution at steady state in iv and po dosed dog; format: ADME, organism-based, Canis lupus familiaris; details: in vivo, read-out: Vdss
[20] = Clearance in iv and po dosed dog; format: ADME, organism-based, Canis lupus familiaris; details: in vivo
Canis familiaris [21] = assay: Metabolic stability in intraportal dosed dog assessed as hepatic first pass; format: ADME, organism-based, Canis lupus familiaris; details: in vivo, other
Rattus norvegicus [22] = assay: Metabolic stability in intraportal dosed rat assessed as hepatic first pass; format: ADME, organism-based; details: in vivo, other

Sodium-dependent noradrenaline transporter, sequence (P23975 whole entry): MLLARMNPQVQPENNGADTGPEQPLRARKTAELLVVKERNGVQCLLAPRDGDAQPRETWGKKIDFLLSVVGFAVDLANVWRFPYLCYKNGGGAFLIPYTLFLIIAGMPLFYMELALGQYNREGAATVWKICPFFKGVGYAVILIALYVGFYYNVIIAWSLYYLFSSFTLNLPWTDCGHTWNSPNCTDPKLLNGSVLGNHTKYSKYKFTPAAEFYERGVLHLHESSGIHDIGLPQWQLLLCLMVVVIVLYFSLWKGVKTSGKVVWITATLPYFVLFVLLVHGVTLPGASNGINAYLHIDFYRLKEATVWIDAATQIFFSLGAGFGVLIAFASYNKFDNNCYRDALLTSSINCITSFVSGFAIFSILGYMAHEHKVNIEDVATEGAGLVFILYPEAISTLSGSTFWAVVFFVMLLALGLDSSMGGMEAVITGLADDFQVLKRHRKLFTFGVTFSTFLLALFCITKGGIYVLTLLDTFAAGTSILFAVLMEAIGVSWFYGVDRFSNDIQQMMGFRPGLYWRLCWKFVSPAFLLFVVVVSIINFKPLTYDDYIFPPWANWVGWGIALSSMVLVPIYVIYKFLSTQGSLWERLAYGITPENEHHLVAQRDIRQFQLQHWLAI

SMILES	IC50 [1]	IC50 [2]	IC50 [3]	MRT [4]	half-life [5]	IC50 [6]	MRT [7]	IC50 [8]	IC50 (Cytochrome P450 2D6)	half-life [9]	IC50 [10]	Vd [16]	clearance [17]	bioavailability [18]	IC50 [15]	other results
CC(C)(Cc1ccc2ccccc2c1)NC[C@@H](O)COc1cccc(Cl)c1C#N		3 nM				4300 nM	150 min		45 nM	126 min	58 nM	11 L/kg	73.8 mL/min/kg	11.4%	3 nM	
CC(C)(Cc1ccc2ccccc2c1)NC[C@@H](O)COc1ccc(CCC(=O)O)cc1	16000 nM	4800 nM	68 nM			> 30000 nM	18 min	3700 nM	52000 nM	24 min	> 25000 nM	2.1 L/kg	118 mL/min/kg	4%	38.5 nM	

Continued by falling IC50 [2], values first:

IC50 [1]	IC50 [2]	IC50 [3]	MRT [4]	half-life [5]	IC50 [6]	MRT [7]	IC50 [8]	IC50 (Cytochrome P450 2D6)	half-life [9]	IC50 [10]	Vd [16]	clearance [17]	bioavailability [18]	SMILES	IC50 [15]	other results
	31800 nM				1.3 nM			1260 nM		11000 nM				COc1ccc(CC(C)(C)NC[C@H](O)COc2cccc3[nH]c(=O)[nH]c23)cc1	11.8 nM	
5400 nM	22 nM	23 nM	51 min	73.8 min	> 30000 nM	19.2 min	2800 nM	> 50000 nM	33.6 min	200 nM	1.18 L/kg	63.6 mL/min/kg	0.29%	CC(C)(Cc1ccc2ccccc2c1)NC[C@@H](O)COc1ccc(CCC(=O)O)cc1C#N	32.7 nM	Vd [19]: 0.78 L/kg; clearance [20]: 15.4 mL/min/kg; Activity (Canis familiaris [21]): 90%; Activity (Rattus norvegicus [22]): 68%
37 nM	3 nM	78 nM	82.2 min	73.8 min	14000 nM	42 min	59 nM	3000 nM	52.8 min	34 nM				CCOC(=O)CCc1ccc(OC[C@H](O)CNC(C)(C)Cc2ccc3ccccc3c2)c(C#N)c1.Cl		F (Canis familiaris [11]): 9.1%; Tmax (Canis familiaris [12]): 30 min; Cmax (Canis familiaris [13]): 597 ng/mL; F (Rattus norvegicus [14]): 9.5%
3 nM	3 nM	3 nM					2 nM	100 nM		18 nM				CC(C)(Cc1ccc2ccccc2c1)NC[C@@H](O)COc1ccccc1C#N	3.2 nM	
